Like-named read-outs stand apart in the source and are kept apart here.
How the values were obtained:
[1] = system: ST dopaminergic synaptosomes; assay: H2O2 (DCF fluorescence) in isolated ST dopaminergic synaptosomes; type: in vivo, mouse; conditions: for elevation of H2O2 levels in ST dopaminergic synaptosomes: dox-induced animals co-treated, DCF fluorescence, FIG. 5C
Experimental: (§1) Dopaminergic and non-dopaminergic striatal synaptosomes were isolated using a modified immuno-magnetic protocol. Briefly, synaptosomes were prepared from dissected striatal tissue. Dopaminergic synaptosomes were isolated using magnetic beads conjugated to anti-rabbit IgG (Miltenyi Biotech) after capturing them using a rabbit anti-DAT antibody (Chemicon). Under a magnetic field, bead-bound synaptosomes were passed through a column and washed; flow-through in the presence of the magnetic field yielded a fraction enriched in non-dopaminergic striatal synaptosomes. Elution performed in the absence of the magnetic field yielded fractions enriched in dopaminergic striatal synaptosomes. Equal quantities of various fractions of the synaptosomes isolated using DAT antibody including the starting material or control, the unbound fraction, the flow-through, the wash and the eluate were subjected to western analysis to assess relative dopaminergic versus non-dopaminergic synaptosomal purification. Western blots were performed using antibodies against TH (Chemicon 1:500), GABA (Chemicon, 1:1000) or SNAP-25 as a synaptic protein normalization control (Chemicon, 1:1000). Band densities were quantified using a Chemimager (Alpha Innotech, San Leandro, Calif.). Approximately 94% synaptosomes in the eluate were dopaminergic according to densitometric evaluation of the western blot.
Hydrogen peroxide levels were measured in the striatal dopaminergic and nondopaminergic synaptosomes prepared as above from various groups of mice. Mice were injected in the tail vein with ˜200 μl of DCFDA (Calbiochem) which was freshly diluted 100× with PBS from a stock of 100 mg/ml in DMSO as modified from Andrews et. al.. […] Hydrogen peroxide in the synaptosomes with or without 1 mg/ml catalase for 30 min after preparation was visualized as DCF fluorescence at 488 nm excitation and 512 nm emission in a Spectramax Gemini fluorescence plate reader. The relative fluorescence was normalized to synaptosomal protein which was quantified using the Bradford reagent, Bio-Rad.

mitochondrial complex I = assay: Mitochondrial complex I activity in isolated ST dopaminergic synaptosomes; type: in vivo, mouse; conditions: dox-induced animals co-treated
Experimental: as §1, with “blot. […]” for “blot.”

mesencephalic cultures = assay: Extracellular H2O2 in medium of dox-induced mesencephalic cultures (Amplex Red); type: cell-based, mouse; conditions: 10 μM deprenyl, 30 μM EUK189 or 500 nM apocynin, FIG. 4
Experimental: Primary mixed cultures were prepared from the midbrain of 14-day-old mice embryos from MAO-B transgenics and WT controls. Tissue was digested in Neurobasal medium containing 30 U/ml papain and 20 μg/ml DNase at 37° C. for 30 min and mechanically triturated. Dissociated cells were centrifuged at 500×g, resuspended in growth medium (Neurobasal medium supplemented with 10% FBS, 2 mM […], […] supplement without antioxidants, 50 U/ml penicillin, 50 U/ml streptomycin and 50 ng/ml GDNF [57]), and plated on poly-d-lysine-coated 8 well chamber slides (BD-Biocoat) at a density of 10^5 cells per ml. Mixed cultures were grown at 37° C. for 3-5 days before induction with 40 μg/ml doxycycline for 12 hours as per. […] H2O2 in the medium was assayed by Amplex Red per the manufacturer's instructions. Dopaminergic and microglial cell counts were performed following fixation of the cultured cells for 15 min with 4% formaldehyde following by T11^+ (Chemicon) or Iba1^+ (WAKO USA, Richmond, Va.) immunostaining or via uptake of ASP^+ (4-(4-(dimethylamino)styryl)-N-methylpyridinium iodide) (Invitrogen), a fluorescent analogue of dopamine. 10 μM ASP^+ was loaded on to the uninduced or induced cultures in the presence of 20 μM of desipramine to inhibit the norepinephrine transporter which would also take up the dye. ASP^+ fluorescence (red) was visualized in the T11^+ cells after immunostaining with anti-T11 antibody and Alexa fluor 488 conjugated secondary antibody. Averages of manual double blind T11^+ or fluorescent counts of three wells of culture with the same treatment were collected; counts were performed in triplicate.

SN dopaminergic neurons = assay: Mitochondrial superoxide in vivo (Mitosox Red) in SN dopaminergic neurons; set-up: species or system mouse; conditions: for increases in mitosox red fluorescence within dopaminergic SN neurons: dox-induced transgenics, co-treatment, FIG. 6; for Mean pixel intensity per cell / Total pixel fluorescence per cell: superoxide (mitosox red) in SN dopaminergic neurons, dox-induced plus co-treatment
Experimental: Mitosox Red (Molecular Probes) was used as an indicator to assess presence of superoxide within cellular mitochondria. 10 μg of Mitosox in 200 μl phosphate-buffered saline was injected into the tail vein of dox-induced transgenics versus controls. Animals were sacrificed 90 minutes later, brains rapidly dissected out and post-fixed overnight in 4% paraformaldehyde. Brains were sectioned at 30 μm using a cryostat. Cellular localization and site of Mitosox Red accumulation in the nigrostriatum was identified by immunofluorescence using anti-TH (Chemicon, 1:500), anti-IBA1 (Wako, 1:500) or anti-GFAP (DAKO, 1:500) antibodies visualized with Fluorescein Avidin D. Mitochondrial localization was confirmed by immunoanalysis using an anti-ATP synthase-specific antibody. Fluorescent imaging was done using a Zeiss LSM510 NLO confocal microscope and images procured using LSM software. Quantification of colocalization and fluorescent intensity was determined using the IMARIS software suite (Bitplane AG, Zurich, Switzerland) on selected cells from multiple sections.

dopaminergic SN neurons = assay: Stereological TH+ SN cell counts in inducible astrocytic MAO-B transgenic mice; type: in vivo, mouse; conditions: dox-induced transgenic mice; co-treatment i.p. 10-30 mg/kg/day for two weeks; FIG. 3A
[2] = Striatal MPP+ levels by HPLC after MPTP injection; type: in vivo, mouse; conditions: 30 mg/kg MPTP, 90 minutes post injection
Experimental: (§2) Striatal tissue was harvested from dox versus untreated animals 90 minutes following injection of 30 mg/kg MPTP intraperitoneally, immediately immersed in ice cold 0.1 M perchloric acid and sonicated. MPP^+ was measured by HPLC as previously described. Dopamine levels were analyzed in striata dissected two weeks of induction or 24 hrs following MPTP injection post induction by HPLC followed by a 464 pulsed electrochemical detection (Neurochemistry Core, Center for Molecular Neuroscience, Vanderbilt University). Stereological cell counts were performed on immunostained brain sections from brains harvested two weeks after induction using either antibody against tyrosine hydroxylase (TH, Chemicon, 1:500) followed by biotin-labeled secondary antibody and development using DAB (Vector Laboratories). TH^+ cells were counted stereologically throughout the SNpc. Counts for dox removal were performed on brains dissected after removal of dox from the feed for a three week period. Sections were cut at a 40 μm thickness, and every 4th section was counted using a grid of 100×100 μm. Dissector size used was 35×35×12 μm. Neuronal numbers were assessed following NeuN^+ (Chemicon, 1:100) or GABA^+ (Chemicon, 1:1000) immunostaining and astrocytes via GFAP^+ (DAKO, 1:500) and s100-â (DAKO, 1:200) immunostaining. Cells were counted in the SN, striata, and cortex in three independent sections per condition and ten fields per section. […] Dopaminochrome was measured from striatal samples by HPLC as per Ochs et al.
To validate that our transgenic model expresses functionally active MAO-B, we assessed its vulnerability to acute systemic MPTP administration. […] Induced and uninduced transgenic mice and wildtype C57B16 littermates were treated with 30 mg/kg MPTP and striatal MPP levels measured via HPLC (Table 1). […]

[3] = system: tyrosine hydroxylase positive (TH+) cells in mesencephalic cultures; assay: TH+ dopaminergic cell counts and morphology in dox-induced mesencephalic cultures; type: cell-based, mouse; conditions: 40 μg/ml dox, twelve hours; deprenyl co-treatment (10 μM); FIG. 2A
microglia = assay: Microglial activation (Iba1 immunochemistry) in the SN; type: in vivo, mouse; conditions: SN of dox-induced transgenics; FIG. 7B
Experimental: Immunochemistry was performed on cryosections derived from the SN, striata, and CTX of fixed perfused brains from dox-induced transgenics versus controls. Astrocytic activation was assessed using primary antibodies against GFAP and s100-β. Microglial activation was detected using primary antibodies against […] Horse radish peroxidase or avidin-conjugated secondary antibodies were used to detect primary antibodies following either DAB or Fluorescein/Texas Red staining.

astroglia = assay: Astrocyte activation by GFAP immunostaining in induced transgenic mice; type: in vivo, mouse; conditions: dox-treated transgenic mice, deprenyl co-treatment
Experimental: as §2, with “Stereological cell counts were performed on immunostained brain sections from brains harvested two weeks after induction using either antibody against tyrosine hydroxylase (TH, Chemicon, 1:500) followed by biotin-labeled secondary antibody and development using DAB (Vector Laboratories).” left out, “Counts for dox removal were performed on brains dissected after removal of dox from the feed for a three week period.” left out, “Dissector size used was 35×35×12 μm.” left out
Immunochemistry was performed on cryosections derived from the SN, striata, and CTX of fixed perfused brains from dox-induced transgenics versus controls. Astrocytic activation was assessed using primary antibodies against GFAP and s100-β. […]

[4] = system: Parkinson's disease (PD) patients; conditions: cited from earlier work; for mortality rate: clinical PD, given after symptoms were present
[5] = Locomotor behavioral assessment (open field, Truscan); type: in vivo, mouse; conditions: induced mice, dox two weeks, deprenyl-treated
Experimental: Locomotor function was assessed using an automated Truscan photobeam apparatus (Colbourne Instruments, Allentown, Pa.) under illumination as previously described. Animals were habituated to the apparatus for 10 min then data collected over a 10-min period followed by analysis using Truscan 99 software. Spontaneous horizontal movement was assessed in both control and dox treated versus untreated transgenic mice via both ambulatory velocity and distance in a 10-min period.

Compound	elevation of H2O2 levels in ST dopaminergic synaptosomes [1]	loss of CI activity in dopaminergic synaptosomes (mitochondrial complex I)	increase in extracellular H2O2 (mesencephalic cultures)	increases in mitosox red fluorescence within dopaminergic SN neurons (SN dopaminergic neurons)	Mean pixel intensity per cell (SN dopaminergic neurons)	Total pixel fluorescence per cell (SN dopaminergic neurons)	other results
CC(=O)O.CCOc1cccc(C=NCCN=Cc2cccc(OCC)c2[O-])c1[O-].[Mn] [EUK-189]	preventable	attenuated	prevented the increase	prevented	15.4 ± 4.0	126,757 ± 23,798	dopaminergic SN cell loss (dopaminergic SN neurons): attenuated
C[n+]1ccc(-c2ccccc2)cc1 [MPP+]	–	–	–	–	–	–	Striatal MPP+ levels ([2]; Dox (induced transgenic mice)): 182 ± 3.4 ng/mg protein; Striatal MPP+ levels ([2]; No Dox (uninduced transgenic mice)): 118 ± 2.3 ng/mg protein; Striatal MPP+ levels ([2]; WT (wildtype C57Bl6 littermates)): 100 ± 3.5 ng/mg protein
COc1cc(C(C)=O)ccc1O [apocynin]	–	–	partial reduction	–	–	–	–
C#CCN(C)[C@H](C)Cc1ccccc1 [deprenyl]	preventable	attenuated	prevented the increase	prevented	10.2 ± 2.1	91,937 ± 19,107	loss in the number of TH+ cells [3]: attenuated; microglial activation (microglia): prevented; astroglial branching (activation) and increased astroglial brain numbers, GFAP (astroglia): inhibited; mortality rate [4]: ineffective; mortality rate ([4]; listed as selegiline): no effect; requirement of L-DOPA supplementation ([4]; early stages of symptomatic PD): delayed and reduced; locomotor activity [5]: completely unaffected
Catalase	–	–	–	–	–	–	DCF fluorescence of dopaminergic synaptosomes from induced animals ([1]; synaptosomes treated with 1 mg/ml catalase for 30 min after preparation): reduced the fluorescence to below uninduced levels

— patent US20110067123A1, “MAO-B ELEVATION AS AN EARLY PARKINSON'S DISEASE BIOMARKER” (priority 2008, published 2011)
